Results taken from PubChem BioAssay (NCI).
Where “and” joins values, the source holds several entries; their conditions need not be identical. Equal values may be shown once.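 Results reflect a 48-hour exposure of cells in 96-well plates to compound at five concentrations. GI50 is the concentration that inhibits growth by half. TGI: total growth inhibition.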

What was measured:
Assay in all cases: NCI anticancer screen, dose series, 48 h
[1] = tested on: NCI-H522 lung
[2] = tested on: HL-60(TB) leukemia
[3] = tested on: NCI-H23 lung
[4] = tested on: OVCAR-4 ovarian
[5] = tested on: OVCAR-3 ovarian
[6] = tested on: U251 CNS
[7] = tested on: NCI/ADR-RES ovarian
[8] = tested on: TK-10 renal
[9] = tested on: EKVX NSCLC
[10] = tested on: SN12C renal

Row | SMILES | GI50 [1] | TGI [1] [µM] | GI50 [2] | TGI [2] [µM] | GI50 [3] | TGI [3] | GI50 [4] [µM] | TGI [4] [µM] | GI50 [5] | TGI [5] [µM] | GI50 [6] | TGI [6] [µM] | GI50 [7] | TGI [7] | GI50 [8] | TGI [8] [µM] | GI50 [9] [µM] | TGI [9] [µM] | GI50 [10] | TGI [10]
1 | C=C1C[C@@H]2[C@H](CC[C@]3(C)C(=O)CC[C@@H]23)[C@@]2(C)C=CC(=O)C=C12 | 8.79 µM | > 38.8 | 26 µM | > 63.4 | 16.5 µM | 44.3 µM | 42.7 | > 100 | 26.5 µM | > 66.3 | 23.5 µM | > 70.5 | 30.6 µM | > 92 µM | 48.1 µM | > 100 | > 59.2 | > 100 | 21 µM | > 63.5 µM
2 | N#CC1CCc2c(c(-c3cn[nH]c3C(F)(F)F)nc3c(F)cc4[nH]ncc4c23)C1 (configuration not stated) | 2.31 µM | 8.61 | 2.56 µM | 16.9 | 5.36 µM | 28.4 µM |  |  | 4.89 µM | 42.6 | 15.1 µM | > 100 | > 100 µM | > 100 µM | 6.28 µM | 57.9 | 5.93 | 28.2 | 4.22 µM | 68.4 µM
3 | S=c1[nH]nc(SCc2ccccc2Cl)c2[nH]cnc12 |  | > 100 |  | > 100 |  | > 100 µM |  | > 100 |  | > 100 |  | > 100 |  | > 100 µM |  | > 100 |  | > 100 |  | > 100 µM
4 | CCCNc1cccc(-n2ncc3c(N/N=C/c4ccncc4)ncnc32)c1 | 1.44 µM | > 25 |  |  | > 25 µM | > 25 µM | > 9.88 | > 25 | 2.17 µM | > 25 | 17 µM | > 25 | 1.93 µM | > 25 µM | 2.37 µM | > 25 | > 25 | > 25 | > 25 µM | > 25 µM
5 | COc1ccc(S(=O)(=O)n2c3ccccc3n3ncc(-c4nnc(C)o4)c23)cc1 | 0.42 µM | > 73.6 | 0.273 µM | 0.841 | 0.786 µM | 75.8 µM | 12.7 | > 100 | 0.342 µM | 2.45 | 0.473 µM | > 65.5 | 0.391 µM | > 48.1 µM | 25.4 µM | > 100 | 1.12 | > 100 | 0.73 µM | 39.6 µM
6 | C[C@H]1CCC/C=C/[C@@H]2C[C@H](O)C[C@H]2[C@H](O)[C@@H](SC2OC(CO)C(O)C(O)C2O)CC(=O)O1 (some centres not stated) | > 100 µM | > 100 | > 100 µM | > 100 | 47.9 µM | > 100 µM | 54.1 | > 100 | > 100 µM | > 100 | > 100 µM | > 100 | 43.3 µM | > 100 µM | > 100 µM | > 100 | > 100 | > 100 | > 100 µM | > 100 µM
7 | Cc1c(N)nc(C(CC(N)=O)NCC(N)C(N)=O)nc1C(=O)NC(C(=O)NC(C)C(O)C(C)C(=O)NC(C(=O)NCCc1nc(-c2nc(C(=O)NCCCNCCCCN)cs2)cs1)C(C)O)C(OC1OC(CO)C(O)C(O)C1OC1OC(CO)C(O)C(OC(N)=O)C1O)c1cnc[nH]1 (configuration not stated) | 7.11 µg/mL | > 10 | 11.8 µg/mL |  | 0.251 µg/mL | 11.1 µg/mL and > 10 µM |  | > 10 | 7.69 µg/mL |  | 8.06 µg/mL | > 10 | 3.44 µg/mL and 1.4 µg/mL | 17 µg/mL | 19.4 µg/mL | > 10 |  | > 10 | 3.12 µg/mL and 2.58 µg/mL | 27.6 µg/mL and > 10 µM
8 | O=C(Nc1ccccc1C(=O)Nc1nccs1)c1ccccc1 |  | > 100 |  | > 100 |  | > 100 µM |  |  |  | 36.6 |  | > 100 |  | > 100 µM |  | > 100 |  | > 100 |  | > 100 µM
9 | CC(C)N(Cc1ccccc1)S(=O)(=O)c1n[nH]c(C(C)(C)C)n1 |  | > 100 |  | > 100 |  | > 100 µM |  | > 100 |  | > 100 |  | > 100 |  | > 100 µM |  | > 100 |  | > 100 |  | > 100 µM
10 | COc1cc(N=Nc2cccc(S(N)(=O)=O)c2)c2ccccc2c1N |  | 30.6 |  | 23.6 |  | 6.72 µM |  | 27.8 |  | 27.5 |  | 22.5 |  | > 68.5 µM |  | 30.1 |  | 27.4 |  | 26.1 µM
11 | COc1cc(/C=C/c2cc(/C=C/c3ccc(O)c(OC)c3)[nH]c(=O)n2)ccc1O | 2.57 µM | 7.95 | 3.74 µM | 12.1 |  |  | 2.46 | 16.8 | 3.8 µM | 33.5 | 3.15 µM | 13.5 | 16.7 µM | > 100 µM | 6.13 µM | 36 | 3.89 | 72.8 | 4.38 µM | > 100 µM
12 | C#CCOc1cccc(Nc2ncc3ncn(C4CCN(C(=O)CCl)C4)c3n2)c1 (configuration not stated) | 7.08 µM | 18.1 | 22.7 µM | > 62.5 | > 62.5 µM | > 62.5 µM |  |  | 37.8 µM | > 62.5 | > 62.5 µM | > 62.5 | > 62.5 µM | > 62.5 µM | > 62.5 µM | > 62.5 | > 62.5 | > 62.5 | 29.1 µM | > 62.5 µM
13 | O=C1NC(O)CCN1C1CC(O)C(CO)O1 (configuration not stated) |  | > 100 |  | > 100 |  | > 100 µM |  |  |  | > 100 |  | > 100 |  | > 100 µM |  | > 100 |  | > 100 |  | > 100 µM
14 | C(#Cc1ccccc1C#Cc1ccccn1)c1ccccn1 | 16.3 µM | 36.3 | 3.92 µM | 17.7 | 19 µM | 46.4 µM | 38 | > 100 |  |  | 11.5 µM | 25.3 | 5.45 µM | 29.4 µM | 6.54 µM | 22.3 | 20.5 | 40.2 | 18.1 µM | 35.1 µM
15 | N#Cc1c(NCc2ccccc2)nc(NCc2ccccc2)c(C#N)c1-c1cccc(O)c1 | 5.89 µM | 33.1 |  |  | 11 µM | 37.4 µM | 23.6 | > 100 | 3.31 µM | 19.4 | 4.02 µM | 15.4 | 13.8 µM | 48 µM | 4.11 µM | 17.4 | 11.6 | 45 | 2.31 µM | 6.69 µM
